Tests used:
[1] = tested on: animals with LPS-induced cognitive impairment; test: Animals with LPS-induced cognitive impairment: colitis improvement (colon); type: in vivo, C57BL/6 male mice; conditions: LPS-treated mice, 1×10^9 CFU/mouse or sulfasalazine 50 mg/kg once a day for 5 days
Protocol: To 100 mg of colon tissue, 200 μl of 10 mM potassium phosphate buffer (pH 7.0) containing 0.5% hexadecyl trimethyl ammonium bromide was added and homogenized. Then, the supernatant was obtained by centrifugation for 10 minutes at 4° C. and 10,000 g. A volume of 50 μl of the supernatant was added to 0.95 mk of reaction solution (containing 1.6 mM tetramethyl benzidine and 0.1 mM H2O2), reacted at 37° C., and absorbance was monitored over time at 650 nm.
(§1) Hippocampus, colon, and spleen tissues were homogenized by adding 1 ml of RIPA buffer (Gibco) containing protease inhibitor cocktail and centrifuged at 4° C., 13000 rpm for 15 min to obtain supernatant. Indicators of this supernatant were measured using an ELISA kit (Ebioscience).
(§2) C57BL/6 male mice (5 weeks old, 19-21 g) were divided (6 mice in each group) and acclimatized to the laboratory for 1 week. To induce intestinal and brain diseases, mice were intraperitoneally administered Escherichia coli-derived LPS (10 μg/kg) once daily for 5 days. […] Experimental animals in the normal group were orally administered with a physiological saline solution, which was used to suspend lactic acid bacteria. The day following the conclusion of sample administration, the experimental animals were sacrificed, and samples from the brain hippocampus, colon, and spleen were collected. In the Hippocampus, inflammatory indicators, such as IFN-γ, TNF-α, and IL-10, were measured using ELISA. In the colon, intestinal length and inflammatory indicators, such as IFN-γ, TNF-α, and IL-10, were measured. In the spleen, Th1 cells and Treg cells were measured by FACS (Fluorescence-Activated Cell Sorting).

[2] = tested on: animals with LPS-induced cognitive impairment; test: Animals with LPS-induced cognitive impairment: improvement effect in spleen; type: in vivo, C57BL/6 male mice; conditions: LPS-treated mice, 1×10^9 CFU/mouse or sulfasalazine 50 mg/kg once a day for 5 days
Protocol: as §1
mRNA was isolated from spleen tissue using the RNA Isolation Kit: RNeasy Mini Kit (QIAGEN), converted to cDNA, and qPCR was performed to measure the expression rates of Tbet, Foxp3, and glyceraldehyde 3-phosphate dehydrogenase (GAPDH). The reaction product was first treated at 95° C. for 30 seconds, followed by 38 cycles of 5 seconds at 95° C. and 30 seconds at 72° C. for analysis.
as §2

[3] = tested on: animals with LPS-induced cognitive impairment; test: Animals with LPS-induced cognitive impairment: cognitive improvement, hippocampus indicators; type: in vivo, C57BL/6 male mice; conditions: LPS-treated mice, 1×10^9 CFU/mouse or sulfasalazine 50 mg/kg once a day for 5 days
Protocol: as §1
The Y-shaped maze measurement device is shaped like an alphabetical Y with three arms extending from it, each arm being 25 cm long, 14 cm high, 5 cm wide, and positioned at the same angle. At the end of one arm of the Y-shaped maze, the animal was placed with its head facing out and allowed to freely navigate the arm for 8 minutes. The animal's movements were recorded, and reported as arm entries when the animal entered the arm with its hind paw, and the animal's movement was represented by an alternation, which was defined as one alternation when the animal passed through the three arms in succession. The amount of spontaneous alternation behavior was expressed as a percentage between the actual number of alternations and the maximum possible number of alternations (i.e., the total number of […] minus 2).
The experiment was conducted in a box (40×40×40 cm) made so that the outside could not be seen from the inside. Two objects (A, A′) of the same shape and size were fixedly disposed in a box and the mouse was relocated to start from the center of the box. Then, the number of times the mouse made contact with the two objects was recorded for 10 minutes. After 24 hours, one of the two objects was replaced with a new object (A, B). Then, one original object and one new object were prepared, and the animal's exploration time was measured.
as §2

[4] = Antioxidant activity (DPPH, in vitro); type: biochemical; conditions: DPPH 0.2 mM; lactic acid bacteria suspension 1×10^8 CFU/ml; 37° C. 20 min
In short: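 Lactic acid bacteria suspension (1×10^8 CFU/ml) or vitamin C (1 g/ml) was mixed with 0.2 mM ethanolic DPPH and incubated 20 min at 37° C. After centrifugation, supernatant absorbance at 517 nm gave the antioxidant activity.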

TNF-α = TNF-α expression in LPS-treated macrophages (ELISA); type: cell-based, C57BL/6 mice; conditions: macrophages treated with lactic acid bacteria and LPS for 24 hours
In short: (§3)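 Peritoneal macrophages were elicited in male C57BL/6 mice (6 weeks) by i.p. 4% thioglycolate and harvested 96 h later. Cells at 0.5×10^6/well were treated with lactic acid bacteria plus LPS for 24 h. Cytokines in the supernatant were quantified by ELISA.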

IL-10 = IL-10 expression in LPS-treated macrophages (ELISA); type: cell-based, C57BL/6 mice; conditions: macrophages treated with lactic acid bacteria and LPS for 24 hours
In short: as §3

BDNF = BDNF expression in SH-SY5Y cells; type: cell-based; conditions: LPS 200 ng/ml; lactic acid bacteria 1×10^4 CFU/ml; 24 h
Protocol: (§4) SH-SY5Y cells obtained from the Korean Cell Line Bank were cultured in DMEM medium supplemented with 10% FBS and 1% antibiotics, and dispensed at 2×10^6 cells per well in a 12-well plate. Then, LPS (200 ng/ml) was added to each well along with lactic acid bacteria (1×10^4 CFU/ml) and incubated for 24 h. The cells and supernatants were collected, sonicated and centrifuged, and the amount of BDNF in the supernatant was measured by ELISA kit.

Neuropeptide Y (NPY) = Neuropeptide Y (NPY) expression in PC12 phaeochromocytoma cells; type: cell-based; conditions: LPS 200 ng/ml; lactic acid bacteria 1×10^4 CFU/ml; 24 hr
Protocol: as §4, with “PC12” for “SH-SY5Y”, “1×10^6” for “2×10^6”, “hr.” for “h.”, “NPY” for “BDNF”

Clostridium difficile = Clostridium difficile proliferation in gut microbiota (PCR); type: cell-based; conditions: human feces culture; lactic acid bacteria 1×10^6 CFU/mL; anaerobic 24 hr
In short: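 Human fecal supernatant, diluted 10,000-fold in GAM, co-cultured anaerobically 24 h with lactic acid bacteria (1×10^6 CFU/mL). C. difficile quantified by PCR on pellet DNA (95 °C 30 s; 42 cycles 95 °C 5 s/72 °C 30 s); supernatant LPS measured by ELISA.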

gut microbiota = test: LPS production in gut microbiota (ELISA); type: cell-based; conditions: human feces culture; lactic acid bacteria 1×10^6 CFU/mL; anaerobic 24 hr
Protocol: Fresh human feces were suspended in anaerobic medium (GAM, Nissui Pharmaceutical Co., Ltd., Japan) and allowed to stand for 10 min. The supernatant was diluted with 10,000-fold anaerobic medium, 0.05 mL of the dilution was transplanted into 5 mL of freshly made anaerobic medium, and lactic acid bacteria (1×10^6 CFU/mL) were implanted and incubated anaerobically for 24 hr.

## O=C(O)c1cc(/N=N/c2ccc(S(=O)(=O)Nc3ccccn3)cc2)ccc1O [Sulfasalazine, sulfasalazine, reference compound]
[1]
  Colon (cm): 5.0 cm
  IFN-γ/IL-10: 2.85
  IL-10: 15.91 pg/mg
  Interferon (IFN)-γ: 45.4 pg/mg
  MPO activity: 4.75 μUnit/mg
  TNF-α: 20.1 pg/mg
  TNF-α/IL-10: 1.26
[2]; spleen qPCR
  Tbet/Foxp3: 1.78
[2]; spleen
  IL-10: 9.78 pg/mg
  Interferon (IFN)-γ: 13.55 pg/mg
  NK cell cytoxicity (%): 7.92%
  Phagocytosis (%): 39.59%
  TNF-α: 4.51 pg/mg
  TNF-α/IL-10: 0.13
[3]
  Exoporation (%) (in NOR task): 72.02%
  Spontaneous alteration (%) (in Y-maze task): 69.21%
[3]; hippocampus
  IFN-γ/IL-10: 0.60
  IL-10: 45.79 pg/mg
  Interferon (IFN)-γ: 27.35 pg/mg
  TNF-α: 10.98 pg/mg
  TNF-α/IL-10: 0.24

## Lactococcus lactis NK208
[4]
  Antioxidant activity: − (not or less than 20% (−; <20%))
TNF-α
  Macrophage Inhibition of TNF-α expression: − (not or less than 20% (−; <20%))
IL-10
  Macrophage Induction of IL-10 expression: − (not or less than 20% (−; <20%))
BDNF
  SHSY5Y cell Induction of BDNF expression: + (weakly (+; >20-60%))
Neuropeptide Y (NPY)
  PC12 cell Induction of NPY expression: + (weakly (+; >20-60%))
Clostridium difficile
  Gut microbiota Inhibition of difficile bacteria proliferation: + (weakly (+; >20-60%))
Gut microbiota
  Gut microbiota Inhibition of LPS production: + (weakly (+; >20-60%))

From patent US20250009819A1, “NOVEL PROBIOTICS AND USE THEREOF” (PBLBIOLAB CO., LTD., priority 2021, published 2025)
